According to patent publication US20240066075A1, “METHODS AND USES OF MICROBIOME COMPOSITIONS, COMPONENTS, OR METABOLITES FOR TREATING EYE DISORDERS” (MarvelBiome, Inc., priority 2021, published 2024):

System: NaIO3-treated ARPE-19 cells
Assay: NaIO3-induced degradation of ARPE-19 cells, MTT cell viability assay
Type: cell-based, human
Settings: 16 hours
Procedure: Cell Culture: ARPE-19 passages 3-7 were used for all experiments. Cells were cultured in %-well plates in DMEM:F12 with 10% of FBS, and incubated at 37° C. with 5% CO2 humidified atmosphere. […] Cell Viability Assay: The colorimetric MTT assay was used to check cell viability. […] At the same time different MBTs, labeled 1 through 10 and summarized in FIG. 2 and Table 2 below, were given to the treatment group at a concentration of 10^6 CFU. After 16 hours of incubation, the absorbance cell viability was evaluated by spectrophotometrically using a microplate reader at 600 nm. Cell Culture: ARPE-19 passages 3-7 were used for all experiments. Cells were cultured in 96-well plates in DMEM:F12 with 10% of FBS, and incubated at 37° C. with 5% CO2 humidified atmosphere. […] Cell Viability Assay: The colorimetric MTT assay was used to check cell viability. […] In the control group, cells were treated only with DMEM:F12 (control media; labeled 'mock-treated' in FIG. 3). […] After 16 hours of incubation, the absorbance cell viability was evaluated by spectrophotometrically using a microplate reader at 600 nm. […] After 16 hours of incubation, the absorbance cell viability was evaluated by spectrophotometrically using a microplate reader at 600 nm. […] After 16 hours of incubation, the absorbance cell viability was evaluated by spectrophotometrically using a microplate reader at 600 nm.

| SMILES | cell viability of NaIO3-treated ARPE-19 cells compared to controls (MTT) (1200 μg/ml NaIO3, all tested concentrations of 5-keto-gluconate (0.1%, 0.2%, 0.4%, 0.5% w/v)) | cell viability of NaIO3-treated ARPE-19 cells compared to controls (MTT) (1200 μg/ml NaIO3, 0.1% (w/v) of 2-keto-gluconate) |
| --- | --- | --- |
| O=C(CO)[C@@H](O)[C@H](O)[C@@H](O)C(=O)O [5-keto-gluconate] | improved cell viability |  |
| O=C(O)C(=O)[C@@H](O)[C@H](O)[C@H](O)CO [2-keto-gluconate] |  | improved cell viability |
